Assay results as given in patent publication US20030186997A1, “2,5-Dihydro-pyrazolo[3,4-d]pyrimidin-4-ones with an anticonsulsive action and methods for producing the same” (priority 2000, published 2003).

How the values were obtained:
maximal electroshock [1] = test: Anticonvulsant action, maximal electroshock (MES), mouse i.p.; format: in vivo; details: ip, read-out: Action in % of the protected animals
Procedure: (§1) The compounds according to the invention were tested for their anticonvulsant action in vivo after i.p. administration to mice according to the international customary standard (Pharmac. Weekblad, Sc. Ed. 14, 132 (1992) and Antiepileptic Drugs, Third Ed., Raven Press, New York 1989) (Table 1). [table]

s.c. pentetrazole = test: Anticonvulsant action, s.c. pentetrazole (PTZ), mouse i.p.; format: in vivo; details: ip, read-out: Action in % of the protected animals
Procedure: as §1

[2] = Octanol/water partition coefficient; format: physicochemical
maximal electroshock [3] = test: Maximal electroshock in the rat, p.o.; format: in vivo; details: po
Procedure: (§2) This compound is also active in convulsion models using bicuculline and picrotoxin as convulsion-inducing cause. Compound 14 (5-(2-methylbenzyl)-2-methyl-2,5-dihydropyrazolo[3,4-d]pyrimidin-4-one) is likewise strongly anticonvulsant with a large therapeutic breadth (ED50 (rat p.o.) =9 mg/kg, NT50>300 mg/kg). Compound 21 has a similar pharmacological profile (ED50 (rat p.o.) =3 mg/kg, NT50>300 mg/kg).

Neurotoxicity (NT50) = format: in vivo; details: rat
Procedure: as §2

bicuculline = test: Convulsion model using bicuculline; format: in vivo; details: bicuculline as convulsion-inducing cause
Procedure: as §2

picrotoxin = format: in vivo
Procedure: as §2

## O=c1c2c[nH]nc2ncn1Cc1ccccc1 [5-benzyl-2,5-dihydropyrazolo[3,4-d]pyrimidin-4-one, reference compound]
Maximal electroshock [1]
  responders at 30 mg/kg: 100%
s.c. pentetrazole; dose 30 mg/kg
  responders at 30 mg/kg: 100%
[2]
  logP: 0.47

## NC(=O)N1c2ccccc2C=Cc2ccccc21 [Carbamazepine, reference compound]
Maximal electroshock [1]
  responders at 100 mg/kg: 100%
s.c. pentetrazole
  responders at 100 mg/kg: 0%

## O=c1c2c[nH]nc2ncn1Cc1ccccc1Cl [Compound 1, 5-(2-chlorobenzyl)-2,5-dihydropyrazolo[3,4-d]pyrimidin-4-one]
Maximal electroshock [1]
  responders at 30 mg/kg: 100%
s.c. pentetrazole
  responders at 100 mg/kg: 80%
[2]
  logP: 1.14
Maximal electroshock [3]
  ED50: 18 mg/kg
Neurotoxicity (NT50)
  NT50 (neurotoxicity): > 500 mg/kg
bicuculline
  activity in convulsion model: active
picrotoxin
  activity in convulsion model: active
other
  melting point: 186 to 187 °C

## O=c1c2c[nH]nc2ncn1Cc1ccc(Cl)cc1 [Compound 2, 5-(4-chlorobenzyl)-2,5-dihydropyrazolo[3,4-d]pyrimidin-4-one]
Maximal electroshock [1]
  responders at 100 mg/kg: 33%
[2]
  logP: 1.34
other
  melting point: 246 to 247 °C

## O=c1c2c[nH]nc2ncn1Cc1ccc(F)cc1 [Compound 3, 5-(4-fluorobenzyl)-2,5-dihydropyrazolo[3,4-d]pyrimidin-4-one]
Maximal electroshock [1]
  responders at 100 mg/kg: 33%
s.c. pentetrazole
  responders at 300 mg/kg: 60%
[2]
  logP: 0.62
other
  melting point: 260 to 261 °C

## O=c1c2c[nH]nc2ncn1Cc1ccc(Cl)cc1Cl [Compound 4, 5-(2,4-dichlorobenzyl)-2,5-dihydropyrazolo[3,4-d]-pyrimidin-4-one]
Maximal electroshock [1]
  responders at 100 mg/kg: 100%
s.c. pentetrazole
  responders at 300 mg/kg: 40%
[2]
  logP: 1.96
other
  melting point: 236 to 237 °C

## O=c1c2c[nH]nc2ncn1Cc1c(F)cccc1F [Compound 5, 5-(2,6-difluorobenzyl)-2,5-dihydropyrazolo[3,4-d]-pyrimidin-4-one]
Maximal electroshock [1]
  responders at 30 mg/kg: 100%
[2]
  logP: 0.28
other
  melting point: 214 to 216 °C

## Cc1ccccc1Cn1cnc2n[nH]cc2c1=O [Compound 6, 5-(2-methylbenzyl)-2,5-dihydropyrazolo[3,4-d]pyrimidin-4-one]
Maximal electroshock [1]
  responders at 100 mg/kg: 67%
s.c. pentetrazole
  responders at 300 mg/kg: 100%
[2]
  logP: 1.36
other
  melting point: 221 to 222 °C

## O=c1c2c[nH]nc2ncn1Cc1ccccc1C(F)(F)F [Compound 8, 5-(2-trifluoromethylbenzyl)-2,5-dihydropyrazolo[3,4-d]-pyrimidin-4-one]
Maximal electroshock [1]
  responders at 100 mg/kg: 67%
s.c. pentetrazole
  responders at 100 mg/kg: 20%
[2]
  logP: 0.78
other
  melting point: 168 to 171 °C

## Cn1cc2c(=O)n(Cc3ccccc3)cnc2n1 [Compound 13, 5-benzyl-2-methyl-2,5-dihydropyrazolo[3,4-d]pyrimidin-4-one]
Maximal electroshock [1]
  responders at 100 mg/kg: 100%
[2]
  logP: 0.72
other
  melting point: 202 to 204 °C

## Cc1ccccc1Cn1cnc2nn(C)cc2c1=O [Compound 14, 5-(2-methylbenzyl)-2-methyl-2,5-dihydropyrazolo[3,4-d]-pyrimidin-4-one]
Maximal electroshock [1]
  responders at 30 mg/kg: 100%
s.c. pentetrazole
  responders at 100 mg/kg: 80%
[2]
  logP: 1.76
Maximal electroshock [3]
  ED50: 9 mg/kg
other
  melting point: 185 to 186 °C

## COc1ccccc1Cn1cnc2nn(C)cc2c1=O [Compound 17, 5-(2-methoxybenzyl)-2-methyl-2,5-dihydropyrazolo[3,4-d]-pyrimidin-4-one]
Maximal electroshock [1]
  responders at 100 mg/kg: 100%
s.c. pentetrazole
  responders at 300 mg/kg: 100%
[2]
  logP: 0.92
other
  melting point: 160 to 162 °C

## Cn1cc2c(=O)n(Cc3cccc(Cl)c3)cnc2n1 [Compound 19, 5-(3-chlorobenzyl) -2-methyl-2,5-dihydropyrazolo[3,4-d]-pyrimidin-4-one]
Maximal electroshock [1]
  responders at 100 mg/kg: 100%
[2]
  logP: 1.56
other
  melting point: 169 to 170 °C

## Cn1cc2c(=O)n(Cc3c(F)cccc3F)cnc2n1 [Compound 21, 5-(2,6-difluorobenzyl)-2-methyl-2,5-dihydropyrazolo[3,4-d]pyrimidin-4-one]
Maximal electroshock [1]
  responders at 30 mg/kg: 100%
s.c. pentetrazole
  responders at 100 mg/kg: 80%
[2]
  logP: 0.67
Maximal electroshock [3]
  ED50: 3 mg/kg
other
  melting point: 226 to 228 °C

## CCn1cc2c(=O)n(Cc3c(F)cccc3F)cnc2n1 [Compound 37, 5-(2,6-difluorobenzyl)-2-ethyl-2,5-dihydropyrazolo[3,4-d]-pyrimidin-4-one]
Maximal electroshock [1]
  responders at 100 mg/kg: 80%
s.c. pentetrazole
  responders at 300 mg/kg: 20%
[2]
  logP: 1.43
other
  melting point: 185 to 187 °C

## CC(C)n1cc2c(=O)n(Cc3c(F)cccc3Cl)cnc2n1 [Compound 43, 5-(2-chloro-6-fluorobenzyl)-2-isopropyl-2,5-dihydropyrazolo[3,4-d]pyrimidin-4-one]
Maximal electroshock [1]; dose 300 mg/kg
  responders at 300 mg/kg: 100%
s.c. pentetrazole
  responders at 300 mg/kg: 33%
[2]
  logP: 1.88
other
  melting point: 159 to 161 °C

## O=c1c2cn(Cc3ccccc3Cl)nc2ncn1Cc1ccccc1Cl [Compound 58, 2,5-bis(2-chlorobenzyl)-2,5-dihydropyrazolo[3,4-d]-pyrimidin-4-one]
[2]
  logP: 2.59
other
  melting point: 167 to 168 °C

## O=c1c2cn(CC3CCCO3)nc2ncn1Cc1ccccc1Cl (centres unmarked) [Compound 60, 5-(2-chlorobenzyl)-2-tetrahydrofuran-2-ylmethyl-2,5-dihydropyrazolo[3,4-d]pyrimidin-4-one]
Maximal electroshock [1]
  responders at 100 mg/kg: 67%
[2]
  logP: 1.67
other
  melting point: 128 to 130 °C

## Cc1nc2nn(C)cc2c(=O)n1Cc1c(F)cccc1F [Compound 64, 5-(2,6-difluorobenzyl)-2,6-dimethyl-2,5-dihydropyrazolo[3,4-d]pyrimidin-4-one]
other
  melting point: 201 to 202 °C

## CCCC(CCC)C(=O)O [Valproate, reference compound]
Maximal electroshock [1]
  responders at 100 mg/kg: 0%
s.c. pentetrazole
  responders at 100 mg/kg: 30%
